# Tested on: hResistin
# Assay: Ability to inhibit TNF-α secretion by hResistin (THP-1, ELISA)
# Format: cell-based
# Conditions: THP-1 human monocyte cell line; TNF-α secretion by hResistin; concentration 5 uM
# Procedure: Using THP-1 (human monocyte) cell line and ELISA system, the abilities to inhibit TNF-α secretion by hResistin (IC50) were evaluated for the compounds prepared in the above examples. The compounds target hResistin, and the abilities of the compounds to inhibit TNF-α secretion by human recombinant Resistin in human monocyte (THP-1) were evaluated. The abilities to inhibit TNF-α secretion were assessed by ELISA quantifying the amount of antibody with the enzyme as a marker using an antigen-antibody reaction.
# Specifically, the cultured cells were spun down at 1,500 rpm for 2 minutes, the supernatant was removed and then the cells were re-suspended in 10 mL of complete RPMI-1640 medium. After counting the number of cells using Luna™ Automated Cell Counter, cells were plated into 96-well assay plates at 50 μL per well. The cells cultured for 24 hours were treated with the test substances in accordance with the concentration for 1 hour, and then the supernatant was collected and subjected to ELISA assay. In the ELISA assay, the absorbance at 450 nm (OD450 nm) was measured using Flexstation 3. The ability of each test substance to inhibit TNF-α secretion (IC50) and its inhibition at a concentration of 5 uM are shown in Table 1 below.
row,SMILES,inhibition at 5 µM [%]
1,"CN1CCN(C(c2ccc(Cl)cc2)c2c(-c3ccccc3)[nH]c3ccccc23)CC1 (stereo not drawn) [Example 2, 3-((4-chlorophenyl)(4-methylpiperazin-1-yl)methyl)-2-phenyl-1H-indole]",70.3

# Same assay, conditions: THP-1 human monocyte cell line; human recombinant Resistin; ELISA OD450 nm; 1 hour treatment
row,SMILES,IC50 [nM]
1,"CN1CCN(C(c2ccc(F)cc2)c2c(-c3ccc(Cl)cc3)[nH]c3ccccc23)CC1 (stereo not drawn) [Example 15, 2-(4-chlorophenyl)-3-((4-fluorophenyl)(4-methylpiperazin-1-yl)methyl)-1H-indole]",1500
2,"Fc1ccc(C(c2c(-c3ccccc3)[nH]c3ccccc23)N2CCOCC2)cc1 (stereo not drawn) [Example 9, 4-((4-fluorophenyl)(2-phenyl-1H-indol-3-yl)methyl)morpholine]",3500
3,"CN1CCN(C(c2ccc(Cl)cc2)c2c(-c3ccccc3)[nH]c3ccccc23)CC1 (stereo not drawn) [Example 2, 3-((4-chlorophenyl)(4-methylpiperazin-1-yl)methyl)-2-phenyl-1H-indole]",4400
4,"CCN1CCN(C(c2ccc(F)cc2)c2c(-c3ccccc3)[nH]c3ccccc23)CC1 (stereo not drawn) [Example 18, 3-((4-ethylpiperazin-1-yl)(4-fluorophenyl)methyl)-2-phenyl-1H-indole]",1700
5,"CN1CCN(C(c2ccccc2)c2c(-c3ccccc3)[nH]c3ccccc23)CC1 (stereo not drawn) [Example 6, 3-((4-methylpiperazin-1-yl)(phenyl)methyl)-2-phenyl-1H-indole]",2800

# Next, values leading:
row,IC50 [nM],SMILES
1,1000,"CN1CCN(C(c2ccc(C(F)(F)F)cc2)c2c(-c3ccccc3)[nH]c3ccccc23)CC1 (stereo not drawn) [Example 8, 3-((4-methylpiperazin-1-yl)(4-(trifluoromethyl)phenyl)methyl)-2-phenyl-1H-indole]"
2,1700,"CCN1CCN(C(c2ccc(C(F)(F)F)cc2)c2c(-c3ccccc3)[nH]c3ccccc23)CC1 (stereo not drawn) [Example 19, 3-((4-ethylpiperazin-1-yl)(4-(trifluoromethyl)phenyl)methyl)-2-phenyl-1H-indole]"
3,2000,"CN1CCN(C(c2cccc(F)c2)c2c(-c3ccccc3)[nH]c3ccccc23)CC1 (stereo not drawn) [Example 7, 3-((3-fluorophenyl)(4-methylpiperazin-1-yl)methyl)-2-phenyl-1H-indole]"
4,400,"CN1CCN(C(c2ccc(Cl)cc2)c2c(-c3ccc(Cl)cc3)[nH]c3ccccc23)CC1 (stereo not drawn) [Example 12, 2-(4-chlorophenyl)-3-((4-chlorophenyl)(4-methylpiperazin-1-yl)methyl)-1H-indole]"
5,1700,"CN1CCN(C(c2ccc(F)cc2)c2c(-c3ccccc3)[nH]c3ccccc23)CC1 (stereo not drawn) [Example 10, 3-((4-fluorophenyl)(4-methylpiperazin-1-yl)methyl)-2-phenyl-1H-indole]"
6,3200,"CN1CCN(C(c2cccc(F)c2)c2c(-c3ccc(Cl)cc3)[nH]c3ccccc23)CC1 (stereo not drawn) [Example 14, 2-(4-chlorophenyl)-3-((3-fluorophenyl)(4-methylpiperazin-1-yl)methyl)-1H-indole]"
